BindingDB's records for doi:10.1002/cbic.201100587 (2012)

The compounds below were run against Glutamine--fructose-6-phosphate transaminase (isomerizing) (Saccharomyces cerevisiae (strain YJM789), UniProt A6ZZL3) (assay: Inhibition Assay).
Excerpt: The inhibition assay was followed under standard conditions with saturating concentrations of both substrates to determine the IC50 values.

Glutamine--fructose-6-phosphate transaminase (isomerizing), sequence (A6ZZL3 whole entry): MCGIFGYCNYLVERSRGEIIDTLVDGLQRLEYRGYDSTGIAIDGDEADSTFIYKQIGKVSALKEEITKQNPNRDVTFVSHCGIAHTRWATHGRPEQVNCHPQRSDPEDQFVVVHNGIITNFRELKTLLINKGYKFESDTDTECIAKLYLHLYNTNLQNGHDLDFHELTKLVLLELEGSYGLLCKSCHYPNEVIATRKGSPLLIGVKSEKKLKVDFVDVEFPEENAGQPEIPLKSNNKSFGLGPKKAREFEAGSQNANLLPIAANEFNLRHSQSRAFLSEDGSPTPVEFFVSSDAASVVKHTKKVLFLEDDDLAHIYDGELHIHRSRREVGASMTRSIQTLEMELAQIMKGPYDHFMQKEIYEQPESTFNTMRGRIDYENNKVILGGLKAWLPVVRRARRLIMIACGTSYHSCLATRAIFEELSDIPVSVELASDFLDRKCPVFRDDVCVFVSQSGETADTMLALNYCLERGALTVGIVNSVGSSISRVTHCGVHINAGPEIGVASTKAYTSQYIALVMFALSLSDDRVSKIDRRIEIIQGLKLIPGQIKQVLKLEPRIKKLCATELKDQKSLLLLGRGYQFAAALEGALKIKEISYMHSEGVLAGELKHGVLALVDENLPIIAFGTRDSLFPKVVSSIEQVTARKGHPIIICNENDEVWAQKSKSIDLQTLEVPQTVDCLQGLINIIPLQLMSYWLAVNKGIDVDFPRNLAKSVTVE

| IC50 [mM] | Ki [mM] | SMILES |
| --- | --- | --- |
| 0.66 | 0.45 | N[C@@H](CNC(=O)[C@@H]1O[C@H]1C(=O)c1ccccc1)C(=O)O [N3-Oxoacyl derivative, 1] |
| 7.35 | 19.4 | CC(=O)[C@@H]1O[C@H]1C(=O)NC[C@H](N)C(=O)O [N3-Oxoacyl derivative, 2] |
| 5.6 | 15.2 | CC(=O)C=CC(=O)NC[C@H](N)C(=O)O [N3-Oxoacyl derivative, 4] |
| 0.27 | 0.0565 | N[C@@H](CNC(=O)/C=C/C(=O)c1ccccc1)C(=O)O [N3-Oxoacyl derivative, 3] |
